≈ marks a conversion by molar mass, not a printed value.
Tests used:
Trichophyton mentagr. = experiment: Antimycotic in-vitro activity, serial dilution test (MIC); type: cell-based, Trichophyton mentagrophytes; conditions: Sabouraud's milieu d'epreuve, 20°C, 96 h, inoculum 5 x 10^4 Keime/ml, read-out: MHK-Werte in γ/ml Nährmedium Trichophyton mentagr.
Procedure: (§1) Versuchsbeschreibung: • Die in-vitro-Prüfungen wurden im Reihenverdünnungstest mit Keiminokula von durchschnittlich 5 x 10^4 Keimen/ml Substrat durchgeführt. Als Nährmedium dienten • a) für Dermatophyten und Schimmelpilze: Sabouraud's milieu d'epreuve • b) für Hefen: • Fleischextrakt-Traubenzucker-Bouillon.
(§2) Die Bebrütungstemperatur betrug 20°C, die Bebrütungsdauer lag bei 24 bis 96 Stunden bei Hefen und 96 Stunden bei Dermatophyten und Schimmelpilzen.

Aspergillus fumigatus = experiment: as above; type: cell-based; conditions: Sabouraud's milieu d'epreuve, 20°C, 96 h, inoculum 5 x 10^4 Keime/ml, read-out: MHK-Werte in γ/ml Nährmedium Aspergillus fumigatus
Procedure: as §1, §2

Candida albicans = experiment: as above; type: cell-based; conditions: Fleischextrakt-Traubenzucker-Bouillon, 20°C, 24 to 96 h, inoculum 5 x 10^4 Keime/ml, read-out: MHK-Werte in γ/ml Nährmedium Candida albicans
Procedure: as §1, §2

Microsporum canis = experiment: as above; type: cell-based; conditions: Sabouraud's milieu d'epreuve, 20°C, 96 h, inoculum 5 x 10^4 Keime/ml, read-out: MHK-Werte in γ/ml Nährmedium Microsporum canis
Procedure: as §1, §2

Torulopsis glabrata = experiment: as above; type: cell-based; conditions: Nakaseomyces glabratus; Fleischextrakt-Traubenzucker-Bouillon, 20°C, 24 to 96 h, inoculum 5 x 10^4 Keime/ml; read-out: MHK-Werte in γ/ml Nährmedium Torulopsis glabrata
Procedure: as §1, §2

Candida-Zellen = experiment: Antimycotic in-vivo activity (oral) in mouse candidosis; parameters: species or system Mäuse vom Typ SPF-CF1; key to Wirkung: +++++: sehr gute Wirkung = 90 % Überlebende am 6.Tag p.i.; ++++: gute Wirkung = 80 % Überlebende am 6.Tag p.i.; +++: Wirkung = 60 % Überlebende am 6.Tag p.i.; ++: schwache Wirkung = 40 % Überlebende am 6.Tag p.i.; +: Spur Wirkung = unter 40 % Überlebende am 6.Tag p.i.; k.W.: keine Wirkung; conditions: for Wirkung: mice infected i.v. with Candida, oral 50 - 100 mg/kg one hour before and seven hours after infection, survivors on day 6 p.i.; for Wirkung compared with known compounds (A), (B), (C) and (D): mouse candidosis, oral 50 - 100 mg/kg
Procedure: Mäuse vom Typ SPF-CF1 wurden intravenös mit 1 - 2 x 10^6 logarithmisch wachsenden Candida-Zellen, die in physiologischer Kochsalzlösung suspendiert werden, infiziert. Eine Stunde vor und sieben Sunden nach der Infektion werden die Tiere mit jeweils 50 - 100 mg/kg Körpergewicht der Präparate oral behandelt.
Unbehandelte Tiere starben 3 bis 6 Tage post infektionem. Die Überlebensrate am 6. Tag post infektionem betrug bei unbehandelten Kontrolltieren etwa 5 %.
+++++ = sehr gute Wirkung = 90 % Überlebende am 6.Tag p.i. ++++ = gute Wirkung = 80 % Überlebende am 6.Tag p.i. +++ = Wirkung = 60 % Überlebende am 6.Tag p.i. ++ = schwache Wirkung = 40 % Überlebende am 6.Tag p.i. + = Spur Wirkung = unter 40 % Überlebende am 6.Tag p.i. k.W. = keine Wirkung

Row | SMILES | MIC (Trichophyton mentagr.) | MIC (Aspergillus fumigatus) | MIC (Candida albicans) | MIC (Microsporum canis) | MIC (Torulopsis glabrata) | Wirkung (Candida-Zellen) | Wirkung compared with known compounds (A), (B), (C) and (D) (Candida-Zellen)
1 | CC(C)(CF)C(O)(CCc1ccc(Cl)cc1Cl)Cn1ccnc1 (stereo not shown) [Beispiel 38] | 4 mg/L (≈ 11.1 µM) | 16 mg/L (≈ 44.5 µM) | < 1 mg/L | 8 mg/L (≈ 22.3 µM) | 2 mg/L (≈ 5.57 µM) | +++ (Wirkung = 60 % Überlebende am 6.Tag p.i.) | bessere Wirkung
2 | CC(C)(Oc1ccc(Cl)cc1)C(O)(CCc1ccc(Cl)cc1)Cn1ccnc1 (stereo not shown) [Beispiel 34] | < 1 mg/L | < 1 mg/L | < 1 mg/L | < 1 mg/L | < 1 mg/L | – | –
3 | CC(C)(COc1ccc(Cl)cc1)C(O)(CCc1ccc(Cl)cc1)Cn1cncn1 (stereo not shown) [Beispiel 29] | < 1 mg/L | < 1 mg/L | 16 mg/L (≈ 36.8 µM) | 2 mg/L (≈ 4.6 µM) | 2 mg/L (≈ 4.6 µM) | – | –
4 | CCOCC(C)(C)C(O)(COc1ccc(Cl)cc1)Cn1cncn1 (stereo not shown) [Beispiel 18] | < 1 mg/L | 4 mg/L (≈ 11.3 µM) | < 1 mg/L | 4 mg/L (≈ 11.3 µM) | 4 mg/L (≈ 11.3 µM) | – | –
5 | CC(CF)(CF)C(O)(CCc1ccc(Cl)cc1Cl)Cn1ccnc1 (stereo not shown) [Beispiel 36] | 2 mg/L (≈ 5.3 µM) | 8 mg/L (≈ 21.2 µM) | < 1 mg/L | 4 mg/L (≈ 10.6 µM) | 4 mg/L (≈ 10.6 µM) | ++++ (gute Wirkung = 80 % Überlebende am 6.Tag p.i.) | bessere Wirkung
6 | Cc1ccc(OCC(O)(Cn2cncn2)C(C)(C)CF)cc1 (stereo not shown) [Beispiel 6] | 2 mg/L (≈ 6.51 µM) | 2 mg/L (≈ 6.51 µM) | < 1 mg/L | 4 mg/L (≈ 13 µM) | 4 mg/L (≈ 13 µM) | – | –
7 | Cc1ccccc1CCC(O)(Cn1ccnc1)C(C)(C)C (stereo not shown) [(D), reference compound] | 8 mg/L (≈ 27.9 µM) | 64 mg/L (≈ 223 µM) | 2 mg/L (≈ 6.98 µM) | 16 mg/L (≈ 55.9 µM) | 16 mg/L (≈ 55.9 µM) | k.W. | –
8 | COCC(C)(C)C(O)(COc1ccc(Cl)cc1C)Cn1cncn1 (stereo not shown) [Beispiel 17] | < 1 mg/L | 4 mg/L (≈ 11.3 µM) | < 1 mg/L | < 1 mg/L | 4 mg/L (≈ 11.3 µM) | – | –
9 | CC(C)(C)C(O)(COc1ccc(Cl)cc1)Cn1ccnc1 (stereo not shown) [(A), reference compound] | 8 mg/L (≈ 25.9 µM) | 32 mg/L (≈ 104 µM) | < 1 mg/L | 16 mg/L (≈ 51.8 µM) | 2 mg/L (≈ 6.48 µM) | k.W. | –
10 | CC(C)(CF)C(O)(CSc1ccccc1Cl)Cn1cncn1 (stereo not shown) [Beispiel 11] | 2 mg/L (≈ 5.82 µM) | 8 mg/L (≈ 23.3 µM) | < 1 mg/L | 4 mg/L (≈ 11.6 µM) | 16 mg/L (≈ 46.5 µM) | – | –
11 | C=CC(C)(C)C(O)(COc1ccc(Cl)cc1Cl)Cn1ccnc1 (stereo not shown) [Beispiel 39] | < 1 mg/L | 32 mg/L (≈ 90.1 µM) | 2 mg/L (≈ 5.63 µM) | 16 mg/L (≈ 45 µM) | < 1 mg/L | ++ (schwache Wirkung = 40 % Überlebende am 6.Tag p.i.) | bessere Wirkung
12 | CC(C)(CF)C(O)(CSc1ccc(Cl)c(Cl)c1)Cn1cncn1 (stereo not shown) [Beispiel 12] | < 1 mg/L | < 1 mg/L | < 1 mg/L | 2 mg/L (≈ 5.29 µM) | < 1 mg/L | ++++ (gute Wirkung = 80 % Überlebende am 6.Tag p.i.) | bessere Wirkung
13 | CC(C)(C)C(O)(CSc1ccc(Cl)cc1)Cn1cncn1 (stereo not shown) [Beispiel 3, 2-(4-Chlorphenylthiomethyl)-3,3-dimethyl-1-(1,2,4-triazol-1-yl)-butan-2-ol] | < 1 mg/L | < 1 mg/L | < 1 mg/L | < 1 mg/L | 2 mg/L (≈ 6.14 µM) | ++++ (gute Wirkung = 80 % Überlebende am 6.Tag p.i.) | bessere Wirkung
14 | C=CC(C)(C)C(O)(COc1ccc(F)cc1)Cn1ccnc1 (stereo not shown) [Beispiel 40] | – | – | – | – | – | ++ (schwache Wirkung = 40 % Überlebende am 6.Tag p.i.) | bessere Wirkung
15 | CC(C)(Oc1ccc(Cl)cc1Cl)C(O)(CCc1ccc(Cl)cc1)Cn1cncn1 (stereo not shown) [Beispiel 30] | < 1 mg/L | 4 mg/L (≈ 8.8 µM) | 16 mg/L (≈ 35.2 µM) | 64 mg/L (≈ 141 µM) | 8 mg/L (≈ 17.6 µM) | – | –
16 | Cc1ccccc1OCC(O)(Cn1cncn1)C(C)(C)C (stereo not shown) [(B), reference compound] | 4 mg/L (≈ 13.8 µM) | 32 mg/L (≈ 111 µM) | 32 mg/L (≈ 111 µM) | 4 mg/L (≈ 13.8 µM) | > 64 mg/L | k.W. | –
17 | COCC(C)(C)C(O)(COc1ccc(Cl)cc1)Cn1cncn1 (stereo not shown) [Beispiel 2] | 2 mg/L (≈ 5.89 µM) | 8 mg/L (≈ 23.5 µM) | < 1 mg/L | 4 mg/L (≈ 11.8 µM) | 8 mg/L (≈ 23.5 µM) | – | –
18 | COCC(C)(C)C(O)(COc1ccc(F)cc1)Cn1cncn1 (stereo not shown) [Beispiel 20] | 2 mg/L (≈ 6.18 µM) | 32 mg/L (≈ 99 µM) | < 1 mg/L | 8 mg/L (≈ 24.7 µM) | 2 mg/L (≈ 6.18 µM) | – | –
19 | CC(CF)(CF)C(O)(CCc1ccc(Cl)cc1)Cn1ccnc1 (stereo not shown) [Beispiel 37] | 4 mg/L (≈ 11.7 µM) | 2 mg/L (≈ 5.83 µM) | 4 mg/L (≈ 11.7 µM) | 16 mg/L (≈ 46.7 µM) | 2 mg/L (≈ 5.83 µM) | ++++ (gute Wirkung = 80 % Überlebende am 6.Tag p.i.) | bessere Wirkung
20 | CC(C)(COc1ccc(Cl)cc1Cl)C(O)(CCc1ccc(Cl)cc1)Cn1ccnc1 (stereo not shown) [Beispiel 35] | < 1 mg/L | < 1 mg/L | 4 mg/L (≈ 8.55 µM) | < 1 mg/L | < 1 mg/L | – | –
21 | Cc1ccccc1OCC(O)(Cn1ccnc1)C(C)(C)C (stereo not shown) [(C), reference compound] | 32 mg/L (≈ 111 µM) | > 64 mg/L | 32 mg/L (≈ 111 µM) | – | > 64 mg/L | k.W. | –
22 | CC(C)(COc1ccc(Cl)cc1)C(O)(COc1ccc(Cl)cc1)Cn1cncn1 (stereo not shown) [Beispiel 19] | < 1 mg/L | < 1 mg/L | 8 mg/L (≈ 18.3 µM) | 2 mg/L (≈ 4.58 µM) | 2 mg/L (≈ 4.58 µM) | – | –
23 | COCC(C)(C)C(O)(COc1ccc(Cl)cc1Cl)Cn1cncn1 (stereo not shown) [Beispiel 16] | < 1 mg/L | 8 mg/L (≈ 21.4 µM) | < 1 mg/L | 2 mg/L (≈ 5.34 µM) | 2 mg/L (≈ 5.34 µM) | – | –
